Reference: patent US7090861B2, “Sustained release delivery systems for solutes” (Farrington Pharmaceuticals, LLC, priority 2000, dated 2006)
Where two headings read alike, the source gives them in different places.

Experiments:
[1] = cited from earlier work
[2] = Cumulative release of albumin from a controlled-release device; format: physicochemical
Procedure: Bovine serum albumin (MW 68,000) was dissolved in phosphate buffered saline and loaded into a device designed to deliver a loading dose. After an initial burst release, the rate becomes constant. Data are plotted as the cumulated delivery of albumin over time, measured as described for FIG. 5. Approximately 10 mg was delivered in 24 hours.

Compound | absorption, share of the total ([1]; ileum) [%] | absorption, share of the total ([1]; jejunum) [%] | absorption, share of the total ([1]; stomach) [%] | release kinetics of albumin ([2]; after an initial burst release) | cumulated delivery of albumin ([2]; in 24 hours, device designed to deliver a loading dose)
[Ca+2] [calcium] | 60 | 20 | < 2 |  | 
Bovine serum albumin: Bovine serum albumin (MW 68,000) in phosphate buffered saline, loaded into a device designed to deliver a loading dose |  |  |  | zero order rate release of albumin over a duration of 24 hours | Approximately 10 mg
